In ChEMBL document CHEMBL1938230, “6-Position optimization of tricyclic 4-quinolone-based inhibitors of glycogen synthase kinase-3β: discovery of nitrile derivatives with picomolar potency” (Bioorg Med Chem Lett, 2012):

Key:
[1] = target: Cyclin-dependent kinase 14 (Homo sapiens) (UniProt O94921); assay: Inhibition of human PFTAIRE1 in HL-60 cells lysate assessed as reduction of labeling of acyl-phosphate ATP probe at 100 nM; type: cell-free
[2] = target: DNA-dependent protein kinase catalytic subunit (Homo sapiens) (UniProt P78527); assay: Inhibition of human DNAPK in HL-60 cells lysate assessed as reduction of labeling of acyl-phosphate ATP probe at 100 nM; type: cell-free
[3] = target: Serine/threonine-protein kinase SMG1 (Homo sapiens) (UniProt Q96Q15); assay: Inhibition of human SMG1 in HL-60 cells lysate assessed as reduction of labeling of acyl-phosphate ATP probe at 100 nM; type: cell-free
[4] = target: T1, Inhibitor of nuclear factor kappa-B kinase subunit beta (Homo sapiens) (UniProt O14920); assay: Inhibition of human IKK-beta in HL-60 cells lysate assessed as reduction of labelling of acyl-phosphate ATP probe at 100 nM; type: cell-free
T1 sequence (whole entry): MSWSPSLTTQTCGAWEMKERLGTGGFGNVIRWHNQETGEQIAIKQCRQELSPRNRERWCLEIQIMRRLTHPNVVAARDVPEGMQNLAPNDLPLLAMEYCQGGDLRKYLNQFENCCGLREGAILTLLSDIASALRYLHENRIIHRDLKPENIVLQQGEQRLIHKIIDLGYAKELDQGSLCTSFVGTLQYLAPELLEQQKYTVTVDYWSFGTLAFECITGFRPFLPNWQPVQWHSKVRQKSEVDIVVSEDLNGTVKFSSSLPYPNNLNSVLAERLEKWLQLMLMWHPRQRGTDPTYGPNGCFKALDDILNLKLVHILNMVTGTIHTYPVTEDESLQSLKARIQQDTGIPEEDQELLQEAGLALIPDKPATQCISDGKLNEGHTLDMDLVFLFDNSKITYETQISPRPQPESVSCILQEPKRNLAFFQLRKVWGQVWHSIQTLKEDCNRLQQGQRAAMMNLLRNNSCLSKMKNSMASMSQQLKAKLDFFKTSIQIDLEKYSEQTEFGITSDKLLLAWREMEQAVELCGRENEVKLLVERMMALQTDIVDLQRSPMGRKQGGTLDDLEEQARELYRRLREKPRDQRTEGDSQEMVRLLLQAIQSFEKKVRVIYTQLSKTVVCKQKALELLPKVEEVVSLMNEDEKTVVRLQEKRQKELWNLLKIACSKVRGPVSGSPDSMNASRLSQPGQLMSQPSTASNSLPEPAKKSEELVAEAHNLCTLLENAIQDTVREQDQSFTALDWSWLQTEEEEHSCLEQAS

[5] = target: Interferon-induced, double-stranded RNA-activated protein kinase (Homo sapiens) (UniProt P19525); assay: Inhibition of human PKR in HL-60 cells lysate assessed as reduction of labeling of acyl-phosphate ATP probe at 100 nM; type: cell-free
[6] = target: Serine/threonine-protein kinase PLK1 (Homo sapiens) (UniProt P53350); assay: Inhibition of human PLK1 in HL-60 cells lysate assessed as reduction of labeling of acyl-phosphate ATP probe at 100 nM; type: cell-free
[7] = target: T2, Serine/threonine-protein kinase 4 (Homo sapiens) (UniProt Q13043); assay: Inhibition of human MST1 in HL-60 cells lysate assessed as reduction of labeling of acyl-phosphate ATP probe at 100 nM; type: cell-free
T2 sequence (whole entry): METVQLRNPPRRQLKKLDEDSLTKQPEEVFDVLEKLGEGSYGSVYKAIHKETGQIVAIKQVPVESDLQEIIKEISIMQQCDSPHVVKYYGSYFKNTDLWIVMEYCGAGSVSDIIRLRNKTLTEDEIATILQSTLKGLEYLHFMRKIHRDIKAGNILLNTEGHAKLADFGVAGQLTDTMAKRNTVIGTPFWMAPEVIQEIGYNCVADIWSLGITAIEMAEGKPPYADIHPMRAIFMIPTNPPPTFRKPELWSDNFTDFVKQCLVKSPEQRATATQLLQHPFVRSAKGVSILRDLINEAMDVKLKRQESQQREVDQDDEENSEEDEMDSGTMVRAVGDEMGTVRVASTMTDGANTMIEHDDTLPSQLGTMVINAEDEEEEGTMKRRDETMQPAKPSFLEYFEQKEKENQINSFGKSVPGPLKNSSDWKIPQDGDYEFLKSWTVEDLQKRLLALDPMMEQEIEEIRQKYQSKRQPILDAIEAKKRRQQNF

[8] = target: Mitogen-activated protein kinase kinase kinase kinase 4 (Homo sapiens) (UniProt O95819); assay: Inhibition of human ZC1/HGK in HL-60 cells lysate assessed as reduction of labeling of acyl-phosphate ATP probe at 100 nM; type: cell-free
HL-60 = assay: Inhibition of human ACK in HL-60 cells lysate assessed as reduction of labeling of acyl-phosphate ATP probe at 100 nM
[9] = target: Tyrosine-protein kinase Fes/Fps (Homo sapiens) (UniProt P07332); assay: Inhibition of human FES in HL-60 cells lysate assessed as reduction of labeling of acyl-phosphate ATP probe at 100 nM; type: cell-free
[10] = target: Tyrosine-protein kinase JAK1 (Homo sapiens) (UniProt P23458); assay: Inhibition of human JAK1 domain2 in HL-60 cells lysate assessed as reduction of labeling of acyl-phosphate ATP probe at 100 nM; type: cell-free
[11] = target: Interleukin-1 receptor-associated kinase 1 (Homo sapiens) (UniProt P51617); assay: Inhibition of human IRAK1 in HL-60 cells lysate assessed as reduction of labeling of acyl-phosphate ATP probe at 100 nM; type: cell-free
[12] = target: Mitogen-activated protein kinase kinase kinase 11 (Homo sapiens) (UniProt Q16584); assay: Inhibition of human MLK3 in HL-60 cells lysate assessed as reduction of labeling of acyl-phosphate ATP probe at 100 nM; type: cell-free
[13] = target: Cyclin-dependent kinase 1 (Homo sapiens) (UniProt P06493); assay: Inhibition of human CDC2 in HL-60 cells lysate assessed as reduction of labeling of acyl-phosphate ATP probe at 100 nM; type: cell-free

Serine/threonine-protein kinase SMG1 (Homo sapiens), sequence (Q96Q15 whole entry): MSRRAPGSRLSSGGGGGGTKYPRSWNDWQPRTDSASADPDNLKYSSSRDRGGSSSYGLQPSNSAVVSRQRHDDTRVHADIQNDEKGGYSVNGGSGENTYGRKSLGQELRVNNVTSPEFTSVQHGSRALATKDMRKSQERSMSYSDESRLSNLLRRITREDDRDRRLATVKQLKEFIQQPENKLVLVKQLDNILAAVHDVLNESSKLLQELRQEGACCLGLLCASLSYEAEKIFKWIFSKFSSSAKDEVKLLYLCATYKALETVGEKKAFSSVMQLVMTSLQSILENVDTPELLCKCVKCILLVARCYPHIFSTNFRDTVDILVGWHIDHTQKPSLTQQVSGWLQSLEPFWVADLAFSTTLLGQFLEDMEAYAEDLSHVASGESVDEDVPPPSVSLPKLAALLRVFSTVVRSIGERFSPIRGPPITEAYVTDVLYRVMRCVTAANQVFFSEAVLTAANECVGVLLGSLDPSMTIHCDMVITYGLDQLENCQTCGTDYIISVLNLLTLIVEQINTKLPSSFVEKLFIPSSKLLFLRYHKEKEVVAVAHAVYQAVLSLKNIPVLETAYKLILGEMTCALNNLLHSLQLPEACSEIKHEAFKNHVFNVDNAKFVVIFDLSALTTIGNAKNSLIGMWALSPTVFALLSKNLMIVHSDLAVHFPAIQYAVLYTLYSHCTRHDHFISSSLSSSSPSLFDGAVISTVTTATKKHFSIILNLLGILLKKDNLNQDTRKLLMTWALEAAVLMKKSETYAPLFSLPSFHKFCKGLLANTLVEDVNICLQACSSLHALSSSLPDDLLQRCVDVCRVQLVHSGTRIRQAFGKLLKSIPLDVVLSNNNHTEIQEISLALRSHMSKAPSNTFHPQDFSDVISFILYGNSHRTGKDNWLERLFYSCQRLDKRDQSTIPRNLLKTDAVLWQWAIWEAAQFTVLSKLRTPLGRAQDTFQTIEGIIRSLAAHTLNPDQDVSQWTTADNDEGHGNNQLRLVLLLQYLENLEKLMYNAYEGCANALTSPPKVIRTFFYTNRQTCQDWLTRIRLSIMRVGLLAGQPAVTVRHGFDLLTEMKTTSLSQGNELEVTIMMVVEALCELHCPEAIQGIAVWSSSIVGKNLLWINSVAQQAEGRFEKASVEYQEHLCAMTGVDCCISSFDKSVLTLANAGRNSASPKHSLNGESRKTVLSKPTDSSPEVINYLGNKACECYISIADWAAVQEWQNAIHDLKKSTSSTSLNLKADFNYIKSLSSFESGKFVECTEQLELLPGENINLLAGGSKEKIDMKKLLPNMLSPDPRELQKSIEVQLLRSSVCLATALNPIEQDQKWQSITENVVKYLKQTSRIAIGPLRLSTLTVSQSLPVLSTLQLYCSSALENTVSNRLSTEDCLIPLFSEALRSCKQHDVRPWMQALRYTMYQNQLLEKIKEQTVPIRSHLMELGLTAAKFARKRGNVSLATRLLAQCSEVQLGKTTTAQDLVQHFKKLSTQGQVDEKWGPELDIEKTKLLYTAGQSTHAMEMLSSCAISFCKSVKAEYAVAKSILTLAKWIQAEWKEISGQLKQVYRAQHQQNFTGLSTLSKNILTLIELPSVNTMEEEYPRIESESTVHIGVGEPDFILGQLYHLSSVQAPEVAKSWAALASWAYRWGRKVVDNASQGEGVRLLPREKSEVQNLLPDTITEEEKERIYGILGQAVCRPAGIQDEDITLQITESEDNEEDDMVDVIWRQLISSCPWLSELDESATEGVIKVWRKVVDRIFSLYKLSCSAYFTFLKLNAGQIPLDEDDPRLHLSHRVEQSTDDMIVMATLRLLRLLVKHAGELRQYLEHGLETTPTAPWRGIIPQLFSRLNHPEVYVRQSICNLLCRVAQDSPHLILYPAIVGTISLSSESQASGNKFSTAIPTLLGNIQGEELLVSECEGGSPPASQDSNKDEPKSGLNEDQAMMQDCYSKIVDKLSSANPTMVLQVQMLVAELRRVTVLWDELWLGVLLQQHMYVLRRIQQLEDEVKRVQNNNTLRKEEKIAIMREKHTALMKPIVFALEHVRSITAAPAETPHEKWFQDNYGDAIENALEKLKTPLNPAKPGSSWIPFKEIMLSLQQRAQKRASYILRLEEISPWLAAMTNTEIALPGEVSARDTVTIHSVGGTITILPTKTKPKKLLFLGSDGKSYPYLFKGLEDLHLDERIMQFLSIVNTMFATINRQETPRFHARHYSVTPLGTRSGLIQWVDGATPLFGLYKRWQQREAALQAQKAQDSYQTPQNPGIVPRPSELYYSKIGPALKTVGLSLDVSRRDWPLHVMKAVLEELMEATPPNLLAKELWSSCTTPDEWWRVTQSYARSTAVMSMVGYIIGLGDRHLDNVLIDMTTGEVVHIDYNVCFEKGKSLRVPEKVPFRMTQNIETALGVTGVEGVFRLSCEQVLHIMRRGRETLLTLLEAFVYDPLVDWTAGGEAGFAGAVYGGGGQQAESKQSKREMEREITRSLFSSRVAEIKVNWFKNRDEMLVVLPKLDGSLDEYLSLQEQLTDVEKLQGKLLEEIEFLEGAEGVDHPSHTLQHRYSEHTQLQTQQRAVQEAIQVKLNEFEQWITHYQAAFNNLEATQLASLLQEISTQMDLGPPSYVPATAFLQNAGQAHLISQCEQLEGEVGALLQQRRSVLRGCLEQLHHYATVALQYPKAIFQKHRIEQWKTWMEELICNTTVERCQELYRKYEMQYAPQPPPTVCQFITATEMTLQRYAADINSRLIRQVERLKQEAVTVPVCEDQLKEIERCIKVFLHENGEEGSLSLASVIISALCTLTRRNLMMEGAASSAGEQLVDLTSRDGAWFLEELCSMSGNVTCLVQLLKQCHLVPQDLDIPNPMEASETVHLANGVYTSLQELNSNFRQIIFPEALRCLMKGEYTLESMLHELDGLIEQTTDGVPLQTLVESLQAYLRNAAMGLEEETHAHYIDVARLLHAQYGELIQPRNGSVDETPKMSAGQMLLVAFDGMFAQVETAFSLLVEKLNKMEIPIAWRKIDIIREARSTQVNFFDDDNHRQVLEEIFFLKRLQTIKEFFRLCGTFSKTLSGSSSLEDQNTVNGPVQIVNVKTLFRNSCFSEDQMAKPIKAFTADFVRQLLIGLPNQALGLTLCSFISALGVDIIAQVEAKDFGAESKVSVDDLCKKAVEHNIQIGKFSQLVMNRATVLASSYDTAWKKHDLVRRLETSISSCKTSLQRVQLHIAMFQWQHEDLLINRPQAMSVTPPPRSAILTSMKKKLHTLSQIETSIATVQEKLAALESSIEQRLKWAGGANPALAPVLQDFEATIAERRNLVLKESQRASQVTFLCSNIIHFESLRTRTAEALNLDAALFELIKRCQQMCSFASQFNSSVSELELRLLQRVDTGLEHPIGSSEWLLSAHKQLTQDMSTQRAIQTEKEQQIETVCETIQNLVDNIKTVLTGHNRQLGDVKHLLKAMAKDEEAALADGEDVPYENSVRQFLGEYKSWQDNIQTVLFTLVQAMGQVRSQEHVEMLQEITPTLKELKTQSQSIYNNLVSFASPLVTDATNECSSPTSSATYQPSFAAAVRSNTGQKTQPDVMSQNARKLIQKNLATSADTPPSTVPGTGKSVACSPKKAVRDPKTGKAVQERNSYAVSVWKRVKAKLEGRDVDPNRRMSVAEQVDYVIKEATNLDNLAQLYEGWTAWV
Interleukin-1 receptor-associated kinase 1 (Homo sapiens), sequence (P51617 whole entry, looked up): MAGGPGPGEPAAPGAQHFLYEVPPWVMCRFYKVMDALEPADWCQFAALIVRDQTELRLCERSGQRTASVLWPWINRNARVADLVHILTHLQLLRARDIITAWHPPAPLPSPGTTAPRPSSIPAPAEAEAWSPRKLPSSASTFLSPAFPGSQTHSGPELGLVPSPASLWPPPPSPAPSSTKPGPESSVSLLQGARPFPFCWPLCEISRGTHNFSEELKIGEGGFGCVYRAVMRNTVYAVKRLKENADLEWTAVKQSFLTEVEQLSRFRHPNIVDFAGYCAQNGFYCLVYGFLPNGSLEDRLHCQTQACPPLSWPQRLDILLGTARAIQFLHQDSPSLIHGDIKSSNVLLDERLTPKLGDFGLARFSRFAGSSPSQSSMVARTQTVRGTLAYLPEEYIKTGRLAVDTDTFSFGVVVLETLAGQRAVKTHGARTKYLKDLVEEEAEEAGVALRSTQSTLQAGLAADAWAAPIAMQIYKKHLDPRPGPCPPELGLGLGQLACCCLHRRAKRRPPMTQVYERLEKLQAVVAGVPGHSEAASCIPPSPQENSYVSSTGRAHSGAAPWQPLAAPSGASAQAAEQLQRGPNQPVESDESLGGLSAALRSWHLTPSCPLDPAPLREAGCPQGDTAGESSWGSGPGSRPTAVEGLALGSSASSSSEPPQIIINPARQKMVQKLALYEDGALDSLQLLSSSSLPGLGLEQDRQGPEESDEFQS
Interferon-induced, double-stranded RNA-activated protein kinase (Homo sapiens), sequence (P19525 whole entry): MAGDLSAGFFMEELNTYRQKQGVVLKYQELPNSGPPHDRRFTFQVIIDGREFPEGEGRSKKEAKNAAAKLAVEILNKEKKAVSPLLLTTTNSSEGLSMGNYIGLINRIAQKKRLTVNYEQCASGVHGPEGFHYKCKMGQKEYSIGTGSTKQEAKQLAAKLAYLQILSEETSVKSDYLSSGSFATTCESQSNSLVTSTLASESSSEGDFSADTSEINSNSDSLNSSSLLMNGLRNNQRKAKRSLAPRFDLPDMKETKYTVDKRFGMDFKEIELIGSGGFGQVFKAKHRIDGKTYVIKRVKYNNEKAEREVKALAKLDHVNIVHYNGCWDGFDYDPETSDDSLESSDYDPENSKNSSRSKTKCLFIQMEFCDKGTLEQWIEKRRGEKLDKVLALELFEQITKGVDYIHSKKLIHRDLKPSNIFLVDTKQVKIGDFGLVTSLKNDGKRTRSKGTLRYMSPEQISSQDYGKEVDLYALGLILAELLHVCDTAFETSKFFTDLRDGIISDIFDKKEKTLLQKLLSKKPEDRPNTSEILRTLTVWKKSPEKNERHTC

C[C@H]1COc2c(NCCCn3cccn3)c(F)c(N)c3c(=O)c(C#N)cn1c23
< 35%: inhibition [1] | inhibition [2] | inhibition [3] | inhibition [4] | inhibition [5] | inhibition [6] | inhibition [7] | inhibition [8] | inhibition at 0.1 µM (HL-60) | inhibition [9] | inhibition [10] | inhibition [11] | inhibition [12] | inhibition [13]

C[C@H]1COc2c(NCCCc3ccccn3)c(F)c(N)c3c(=O)c(C(=O)O)cn1c23
< 35%: inhibition [1] | inhibition [2] | inhibition [3] | inhibition [4] | inhibition [5] | inhibition [6] | inhibition [7] | inhibition [8] | inhibition at 0.1 µM (HL-60) | inhibition [9] | inhibition [10] | inhibition [11] | inhibition [12] | inhibition [13]

C[C@H]1COc2c(NCCCn3cccn3)c(F)c(N)c3c(=O)c(C(=O)O)cn1c23
< 35%: inhibition [1] | inhibition [2] | inhibition [3] | inhibition [4] | inhibition [5] | inhibition [6] | inhibition [7] | inhibition [8] | inhibition at 0.1 µM (HL-60) | inhibition [9] | inhibition [10] | inhibition [11] | inhibition [12] | inhibition [13]

C[C@H]1COc2c(NCCCc3ccccn3)c(F)c(N)c3c(=O)c(C#N)cn1c23
< 35%: inhibition [1] | inhibition [2] | inhibition [3] | inhibition [4] | inhibition [5] | inhibition [6] | inhibition [7] | inhibition [8] | inhibition at 0.1 µM (HL-60) | inhibition [9] | inhibition [10] | inhibition [11] | inhibition [12] | inhibition [13]
